Source: ChEMBL document CHEMBL4406802, “Human disorders associated with inflammation and the evolving role of natural products to overcome” (Eur J Med Chem, 2019)
Values after ≈ are worked out from the molar mass of the structure shown. Blank lines part the entries; values can stand above or below the compound they belong to.

What was measured:
[1] = biological target: T1, Prostaglandin G/H synthase 2 (Ovis aries, UniProt P79208); test: Inhibition of recombinant ovine COX2 using arachidonic acid as substrate preincubated for 15 mins followed by arachidonic acid addition measured after 2 mins by ELISA
T1 sequence (P79208 whole entry): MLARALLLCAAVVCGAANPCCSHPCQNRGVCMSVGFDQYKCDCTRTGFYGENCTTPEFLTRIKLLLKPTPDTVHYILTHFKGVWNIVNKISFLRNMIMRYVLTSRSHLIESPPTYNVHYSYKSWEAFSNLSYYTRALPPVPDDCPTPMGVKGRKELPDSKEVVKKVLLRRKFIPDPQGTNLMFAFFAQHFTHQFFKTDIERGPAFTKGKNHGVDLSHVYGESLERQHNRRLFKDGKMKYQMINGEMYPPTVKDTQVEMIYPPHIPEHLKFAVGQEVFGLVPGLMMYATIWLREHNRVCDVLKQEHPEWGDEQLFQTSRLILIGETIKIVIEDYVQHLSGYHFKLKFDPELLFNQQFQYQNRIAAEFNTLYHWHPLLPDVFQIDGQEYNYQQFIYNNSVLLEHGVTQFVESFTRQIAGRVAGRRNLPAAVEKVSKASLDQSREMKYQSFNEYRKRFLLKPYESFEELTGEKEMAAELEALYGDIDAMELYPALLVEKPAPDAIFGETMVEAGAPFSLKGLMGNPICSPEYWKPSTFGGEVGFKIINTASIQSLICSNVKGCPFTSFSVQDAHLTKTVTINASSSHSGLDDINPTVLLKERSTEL

[2] = biological target: T2, Prostaglandin G/H synthase 2 (Homo sapiens, UniProt P35354); test: Inhibition of COX2 (unknown origin)
T2 sequence (P35354 whole entry): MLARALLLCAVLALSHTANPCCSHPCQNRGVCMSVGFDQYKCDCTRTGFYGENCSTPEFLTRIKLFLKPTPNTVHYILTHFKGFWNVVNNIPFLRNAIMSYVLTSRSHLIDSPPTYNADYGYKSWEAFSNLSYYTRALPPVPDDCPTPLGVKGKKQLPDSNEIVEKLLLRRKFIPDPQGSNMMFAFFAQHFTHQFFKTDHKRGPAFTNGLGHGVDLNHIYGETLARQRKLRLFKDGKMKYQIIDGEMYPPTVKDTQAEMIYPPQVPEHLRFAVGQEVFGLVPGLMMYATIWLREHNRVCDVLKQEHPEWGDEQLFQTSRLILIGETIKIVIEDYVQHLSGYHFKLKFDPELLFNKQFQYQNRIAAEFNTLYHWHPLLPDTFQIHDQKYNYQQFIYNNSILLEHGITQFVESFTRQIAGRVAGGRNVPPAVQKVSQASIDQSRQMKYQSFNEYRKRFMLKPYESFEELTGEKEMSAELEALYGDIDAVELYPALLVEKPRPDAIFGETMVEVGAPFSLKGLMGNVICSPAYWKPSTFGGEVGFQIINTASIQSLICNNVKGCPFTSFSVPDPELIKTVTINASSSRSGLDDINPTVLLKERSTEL

[3] = biological target: T3, Prostaglandin G/H synthase 2 (Homo sapiens) (UniProt P35354); test: Inhibition of human COX2 at 10 uM using arachidonic acid as substrate measured for 300 secs intervals from 3 to 10 secs in presence of hematin by fluorescence assay relative to control
T3 sequence (whole entry): T2 sequence (P35354 whole entry)

[4] = test system: RAW264.7; test: Antiinflammatory activity in mouse RAW264.7 cells assessed as inhibition of LPS-induced nitric oxide production; format: functional, cell-based
[5] = test system: RAW264.7; test: Antiinflammatory activity in mouse RAW264.7 cells assessed as inhibition of LPS-induced nitric oxide production after 24 hrs by Griess reagent based assay; format: functional, cell-based; conditions: RAW264.7, 24 h

Structure (SMILES): C[C@@H]1O[C@@H](O[C@@H]2[C@@H](O)[C@H](OCCc3ccc(O)cc3)O[C@H](CO)[C@H]2OC(=O)/C=C/c2ccc(O)c(O)c2)[C@H](O)[C@H](O[C@@H]2OC[C@](O)(CO)[C@H]2O)[C@H]1O
IC50 [1]: 36 µM

Structure (SMILES): COOC[C@@]1(C)CC[C@]2(C)CC[C@]3(C)[C@@H]4CCc5cc(O)c(O)cc5[C@]4(C)CC[C@@]3(C)C2C1 (some centres not stated)
IC50 [2]: 430 µM

Structure (SMILES): C=C(C)C(O)Cc1c(-c2ccc(O)cc2O)oc2c(CC=C(C)C)c(O)cc(O)c2c1=O (configuration not stated)
IC50 [4]: 7.3 µg/mL

Structure (SMILES): C=C(C)C(=O)Cc1c(-c2ccc(O)cc2O)oc2c(CC=C(C)C)c(O)cc(O)c2c1=O
IC50 [4]: 4.3 µg/mL

Structure (SMILES): CC(=O)OC[C@H]1O[C@@H](OCCc2ccc(O)c(O)c2)[C@H](O[C@@H]2OC[C@](O)(CO)[C@H]2O)[C@@H](O[C@@H]2O[C@@H](C)[C@H](O)[C@@H](O)[C@H]2O)[C@@H]1OC(=O)/C=C/c1ccc(O)c(O)c1
IC50 [1]: 16 µM

Structure (SMILES): CC[C@H](CC[C@@H](C)[C@H]1CC[C@H]2[C@@H]3C[C@H](O)C4=CC(=O)CC[C@]4(C)[C@H]3CC[C@]12C)C(C)C
IC50 [4]: 86.7 µM

Structure (SMILES): CC(=O)OC[C@H]1O[C@@H](OCCc2ccc(O)c(O)c2)[C@H](O)[C@@H](O[C@@H]2O[C@@H](C)[C@H](O)[C@@H](O[C@@H]3OC[C@](O)(CO)[C@H]3O)[C@H]2O)[C@@H]1OC(=O)/C=C/c1ccc(O)c(O)c1
IC50 [1]: 19.6 µM

Structure (SMILES): COc1cc(/C=C/C(=O)O[C@H]2CC[C@]3(C)[C@H]4CC=C5[C@@H]6CC(C)(C)CC[C@]6(C(=O)O)CC[C@@]5(C)[C@]4(C)CC[C@H]3C2(C)C)ccc1O
IC50 [4]: 54.1 µM

Structure (SMILES): CC(=O)OC[C@H]1O[C@@H](OCCc2ccc(O)c(O)c2)[C@H](O)[C@@H](O[C@@H]2O[C@@H](C)[C@H](O)[C@@H](O)[C@H]2O)[C@@H]1OC(=O)/C=C/c1ccc(O)c(O)c1
IC50 [1]: 9.4 µM

Structure (SMILES): COc1cc(OC(C)=O)c2c(c1)O[C@H](OC(C)=O)[C@]1(Cc3cc4c(cc31)COC4)C2=O
inhibition [3]: 89%

Structure (SMILES): O=C(OC[C@@]1(O)CO[C@@H](O[C@H]2[C@H](Oc3ccc(O)c(O)c3)O[C@H](CO)[C@@H](O)[C@@H]2O)[C@@H]1O)c1ccc(O)c(O)c1
IC50 [1]: 24.7 µM

Structure (SMILES): COc1cc(OC(C)=O)c2c(c1)O[C@H](OC(C)=O)[C@@]1(Cc3cc4c(cc31)COC4)C2=O
inhibition [3]: 20.9%

Structure (SMILES): CC(C)=CCc1c(-c2ccc(O)cc2O)oc2cc3c(c(O)c2c1=O)C=CC(C)(C)O3 [CUDRAFLAVONE B]
IC50 [4]: 7.4 µg/mL

Structure (SMILES): CC(C)=CCC1C(=O)c2c(O)cc3c(c2OC1c1ccc(O)cc1O)C=CC(C)(CO)O3 (configuration not stated)
IC50 [4]: 5.2 µg/mL

Structure (SMILES): COc1cc(O[C@@H]2O[C@H](CO)[C@@H](O)[C@H](O)[C@H]2O[C@@H]2OC[C@](O)(COC(=O)c3ccc(O)c(O)c3)[C@H]2O)ccc1O
IC50 [1]: 29.2 µM

Structure (SMILES): CC(C)=CCC1C(=O)c2c(O)cc3c(c2OC1c1ccc(O)cc1O)C=CC(C)(C)O3 (configuration not stated)
IC50 [4]: 5.3 µg/mL

Other lines, results leading:

inhibition [3]: 62.2%
Structure (SMILES): COc1cc(OC)c(C(=O)/C=C/c2ccc(O)cc2)c(OC)c1

IC50 [5]: 24.1 µg/mL (≈ 106 µM)
Structure (SMILES): Oc1ccc(/C=C/c2cc(O)cc(O)c2)cc1 [RESVERATROL]

IC50 [4]: 12.1 µg/mL
Structure (SMILES): O=C1CC(c2ccc(O)cc2O)Oc2cc(O)cc(O)c21 (configuration not stated) [STEPPOGENIN]

IC50 [5]: 3.5 µg/mL (≈ 8.28 µM)
Structure (SMILES): C=C(C)[C@H](O)CC/C(C)=C/Cc1c(O)cc2oc(-c3ccc(O)cc3)cc(=O)c2c1O

IC50 [5]: 3.4 µg/mL (≈ 13.3 µM)
Structure (SMILES): O=C(/C=C/c1ccc(O)cc1)c1ccc(O)cc1O [ISOLIQUIRITIGENIN]

IC50 [5]: 7.5 µg/mL (≈ 26.2 µM)
Structure (SMILES): COc1cc(O)cc(-c2cc3cc(OC)c(O)cc3o2)c1

IC50 [4]: 9.2 µg/mL
Structure (SMILES): CC(C)=CCc1c(-c2ccc(O)cc2O)oc2cc(O)cc(O)c2c1=O [ALBANIN A]

inhibition [3]: 71.4%
Structure (SMILES): COc1ccc(CC2(O)COc3cc(O)cc(O)c3C2=O)cc1 (configuration not stated)

IC50 [5]: 3.5 µg/mL (≈ 11.1 µM)
Structure (SMILES): COc1c(-c2ccc(O)c(O)c2)oc2cc(O)cc(O)c2c1=O [3-O-METHYLQUERCETIN]

IC50 [5]: 10.2 µg/mL (≈ 37.5 µM)
Structure (SMILES): O=C(/C=C/c1ccc(O)cc1O)c1ccc(O)cc1O

IC50 [5]: 18.5 µg/mL (≈ 60 µM)
Structure (SMILES): CC1(C)C=Cc2c(cc(O)cc2-c2cc3ccc(O)cc3o2)O1
